Molecular target: T1, BdorOR13a/BdorOrco (Bactrocera dorsalis, UniProt A0A0G2UKH1)
T1 construct: gene OR13a; full-length 441-residue OR co-expressed with BdorOrco; pcDNA3.1(+) with mCherry reporter in HEK 293 cells (also pT7Ts in Xenopus oocytes); with Odorant receptor coreceptor
T1 sequence (A0A0G2UKH1 1-441): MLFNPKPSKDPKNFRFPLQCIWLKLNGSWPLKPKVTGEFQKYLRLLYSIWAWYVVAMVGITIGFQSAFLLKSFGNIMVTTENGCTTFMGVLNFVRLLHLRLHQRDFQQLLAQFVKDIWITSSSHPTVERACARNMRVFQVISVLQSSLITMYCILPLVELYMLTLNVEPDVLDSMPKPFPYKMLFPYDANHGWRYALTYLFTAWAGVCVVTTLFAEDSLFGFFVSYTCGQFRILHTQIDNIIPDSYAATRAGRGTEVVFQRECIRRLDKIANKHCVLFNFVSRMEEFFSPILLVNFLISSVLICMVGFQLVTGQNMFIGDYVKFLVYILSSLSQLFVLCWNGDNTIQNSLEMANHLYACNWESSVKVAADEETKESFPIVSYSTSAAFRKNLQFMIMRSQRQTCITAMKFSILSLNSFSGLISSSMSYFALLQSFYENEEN
T1 sequence (B2Z9Z0 1-473 partner): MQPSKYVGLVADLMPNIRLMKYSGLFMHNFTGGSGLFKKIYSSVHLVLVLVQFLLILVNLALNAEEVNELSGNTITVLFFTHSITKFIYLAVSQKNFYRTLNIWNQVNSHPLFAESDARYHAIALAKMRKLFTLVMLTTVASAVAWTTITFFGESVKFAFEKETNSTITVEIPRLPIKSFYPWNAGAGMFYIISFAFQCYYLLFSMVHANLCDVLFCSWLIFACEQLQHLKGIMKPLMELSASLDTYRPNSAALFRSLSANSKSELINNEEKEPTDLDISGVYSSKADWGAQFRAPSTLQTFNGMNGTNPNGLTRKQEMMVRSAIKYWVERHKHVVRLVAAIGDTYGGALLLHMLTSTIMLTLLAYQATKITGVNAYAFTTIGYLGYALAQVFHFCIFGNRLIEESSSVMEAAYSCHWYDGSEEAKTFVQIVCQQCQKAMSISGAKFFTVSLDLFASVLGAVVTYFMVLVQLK
Assay: calcium imaging (Fluo-4 AM), HEK […] cells
Type: cell-based

EC50: 11.3 µM
Structure (SMILES): C=CC(O)CCCCC (stereo not shown) [1-octen-3-ol]

Reference: publication PMC9932091, “Two odorant receptors regulate 1-octen-3-ol induced oviposition behavior in the oriental fruit fly” (Communications Biology, 2023)
